# Key:
# Cytochrome P450 2C19 = Cytochrome P450 2C19 (Homo sapiens, UniProt P33261); experiment: Human liver microsomal cytochrome P450 cocktail inhibition assay, Protocol C; details: 2C19_S-Meph pIC50, human liver microsomes 0.2 mg/ml; probe S-mephenytoin 30 microM
# CYP2C9 = CYP2C9 (Homo sapiens, UniProt P11712); experiment: as above; details: human, liver microsomes, pH 7.4, probe tolbutamide (100 microM), 2C9 Tolbut pIC50, human liver microsomes 0.2 mg/ml
# Cytochrome P450 2D6 = Cytochrome P450 2D6 (Homo sapiens, UniProt P10635); experiment: as above; details: 2D6_Dextro pIC50, human liver microsomes 0.2 mg/ml; probe dextromethorphan 3 microM
# Cytochrome P450 1A2 = molecular target: T1, Cytochrome P450 1A2 (Homo sapiens, UniProt P05177); experiment: as above
# T1 sequence (P05177 1-516): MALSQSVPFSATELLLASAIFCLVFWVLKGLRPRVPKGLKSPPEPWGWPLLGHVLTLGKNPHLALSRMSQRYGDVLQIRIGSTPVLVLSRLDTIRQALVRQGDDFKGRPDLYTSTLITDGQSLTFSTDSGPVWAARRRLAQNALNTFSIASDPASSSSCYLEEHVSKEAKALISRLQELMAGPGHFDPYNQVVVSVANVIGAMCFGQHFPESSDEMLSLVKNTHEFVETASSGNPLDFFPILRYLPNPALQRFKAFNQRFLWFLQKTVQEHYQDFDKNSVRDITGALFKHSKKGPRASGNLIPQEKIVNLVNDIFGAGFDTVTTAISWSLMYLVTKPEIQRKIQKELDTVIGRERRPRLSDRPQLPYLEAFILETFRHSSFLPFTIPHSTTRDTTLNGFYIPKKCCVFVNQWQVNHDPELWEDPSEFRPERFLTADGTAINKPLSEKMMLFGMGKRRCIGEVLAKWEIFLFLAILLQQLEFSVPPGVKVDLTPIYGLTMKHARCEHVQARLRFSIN
# Cytochrome P450 2C8 = molecular target: T2, Cytochrome P450 2C8 (Homo sapiens, UniProt P10632); experiment: as above; format: in vitro ADME; details: human liver microsomes 0.2 mg/ml, probe amodiaquine 2 microM; for IC50: read-out: 2C8_Amod pIC50 (converted)
# T2 construct: tissue BD Gentest; host or cells: human liver microsomes
# T2 sequence (P10632 1-490): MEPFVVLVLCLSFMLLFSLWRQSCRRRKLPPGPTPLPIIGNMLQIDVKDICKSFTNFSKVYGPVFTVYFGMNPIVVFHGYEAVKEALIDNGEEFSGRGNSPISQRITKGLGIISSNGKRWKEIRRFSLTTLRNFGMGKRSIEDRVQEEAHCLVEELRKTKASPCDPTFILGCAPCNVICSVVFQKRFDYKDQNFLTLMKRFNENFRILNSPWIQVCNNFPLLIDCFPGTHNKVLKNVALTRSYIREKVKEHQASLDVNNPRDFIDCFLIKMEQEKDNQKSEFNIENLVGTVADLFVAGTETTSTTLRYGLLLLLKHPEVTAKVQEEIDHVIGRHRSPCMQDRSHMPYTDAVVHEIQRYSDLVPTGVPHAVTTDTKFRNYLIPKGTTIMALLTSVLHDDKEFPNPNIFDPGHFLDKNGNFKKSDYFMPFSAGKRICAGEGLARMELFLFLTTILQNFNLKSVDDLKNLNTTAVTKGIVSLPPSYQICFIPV
# Procedure: (§1) Probe substrates and final assay concentrations with the appropriate internal standard are outlined in Table 6a.
# Assays were performed in 0.1 M phosphate buffer (pH 7.4), containing 0.2 mg/ml human liver microsomes (BD Gentest) and a probe substrate mix consisting of: phenacetin, tolbutamide, S-mephenyloin, dextromethorphan, amodiaquine and midazolam (Table 6a) and a range of test compound concentrations (0 to 30 micromolar) in a total volume of 100 microliters. After a 10 min pre-incubation at 37° C., the reaction was started with addition of NADPH at a final concentration of 1.0 mM. […] The samples are centrifuged for 10 min at 4° C. at 4000 rpm and 60 microliters supernatant is diluted with 180 microliters water. Each sample is injected onto a UPLC/MS system for the simultaneous measurement of the probe substrate metabolites and their associated deuterated internal standards. Percentage inhibition is calculated according to: %-inhibition=(1−Ri/R)*100, whereby Ri and R are the metabolite to internal standard peak area ratios in the presence and absence of inhibitor respectively.
# (§2) Percentage inhibition data are plotted against the Log transformed test compound concentration and after curve fitting the IC50-value is determined.
# CYP3A4/5 = CYP3A4/5 (Homo sapiens, UniProt P08684); experiment: in vitro; details: liver microsomes, pH 7.4, probe midazolam (2 microM)
# Procedure: as §1
# After a 10 min pre-incubation at 37° C., the reaction was started with addition of NADPH at a final concentration of 1.0 mM. […] The samples are centrifuged for 10 min at 4° C. at 4000 rpm and 60 microliters supernatant is diluted with 180 microliters water. Each sample is injected onto a UPLC/MS system for the simultaneous measurement of the probe substrate metabolites and their associated deuterated internal standards.
# as §2
# Cytochrome P450 2C9 = Cytochrome P450 2C9 (Homo sapiens, UniProt P11712); experiment: Human liver microsomal cytochrome P450 cocktail inhibition assay, Protocol C; details: 2C9 Tolbut pIC50, human liver microsomes 0.2 mg/ml; probe tolbutamide 100 microM
# Microsporum canis B68128 = experiment: Antifungal activity in vitro (resazurin susceptibility screen), Inf. B; format: cell-based; details: Microsporum canis, B68128, Microsporum canis B68128; 27 °C, 9 days, resa time 24 hours; read-out: Inf. B pIC50 (converted)
# Outline: (§3)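 Each well was inoculated with 10^3 cfu of fungus onto dried, pre-spotted compound serial dilutions in RPMI-MOPS medium, with fungal growth read by resazurin. Growth was referenced to drug-free culture (100%) and medium-only (0%) controls on each plate.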
# [1] = system: Trichophyton mentagrophytes B70554; experiment: Antifungal activity in vitro (resazurin susceptibility screen), Inf. G; format: cell-based; details: Trichophyton mentagrophytes, B70554, Trichophyton mentagrophytes B70554; 27 °C, 7 days, resa time 24 hours; read-out: Inf. G pIC50 (converted)
# Outline: as §3
# [2] = system: Scedosporium prolificans IHEM21157; experiment: Antifungal activity in vitro (resazurin susceptibility screen), Inf. I; format: cell-based; details: Lomentospora prolificans, 37 °C, 48 hours, resa time 17 hours, read-out: Inf. I pIC50 (converted)
# Procedure: (§4) The standard susceptibility screen was performed in 96-well plates (U-bottom, Greiner Bio-One). […] These serial dilutions (10 n1) were then spotted onto test-plates that could be stored in the dark at 4° C. for a maximum period of 2 weeks. […] The different fungal species/isolates (Table 3a) were cryopreserved and 1/1000 diluted in medium just prior to use. A standard inoculum of 200 μl containing 10^3 colony-forming unit (cfu) was then added to each well. A positive control (100% growth=fungal culture without antifungal) and a negative control (0% growth ═RPMI-MOPS medium) were included on each plate. […] [table]
# Rhizopus oryzae IHEM5223 = experiment: Antifungal activity in vitro (resazurin susceptibility screen), Inf. J; format: cell-based; details: Rhizopus arrhizus, 37 °C, 24 hours, resa time 6 hours, read-out: Inf. J pIC50 (converted)
# Procedure: as §4
# [3] = system: Candida parapsilosis B66126; experiment: Antifungal activity in vitro (resazurin susceptibility screen), Inf. D; format: cell-based; details: Lodderomyces parapsilosis; Candida parapsilosis B66126; 37 °C, 24 hours, resa time 4 hours; read-out: Inf. D pIC50 (converted)
# Outline: as §3
# [4] = Liver metabolic stability assay, gpLM; format: in vitro ADME, guinea pig; details: guinea pig microsomes, 1 mg protein/ml, 5 μM test compound, 15 min, 37 °C
# CYP1A2 = molecular target: T3, CYP1A2 (Homo sapiens, UniProt P05177); experiment: Human liver microsomal cytochrome P450 inhibition assay, Protocol B; format: in vitro ADME; details: liver microsomes, pH 7.4, probe resorufin, at 30 μM
# T3 sequence (P05177 1-516): T1 sequence (P05177 1-516)
# Procedure: (§5) The samples are centrifuged for 10 min at 4° C. at 4000 rpm and the supernatant is analyzed. Analysis for CYP1A2 with resorufin was performed by fluorescence while the CY2D6 inhibition potential was assessed using LC-MS detection.
# CYP2D6 = CYP2D6 (Homo sapiens, UniProt P10635); experiment: as above; format: in vitro ADME; details: pH 7.4; at 30 μM; solvent condition B (0.30% DMSO+0.68% acetonitrile); human liver microsomes; probe dextromethorphan
# Procedure: as §5
# [5] = Liver metabolic stability assay, hLM; format: in vitro ADME, human; details: human liver microsomes, 1 mg protein/ml, 5 μM test compound, 15 min, 37 °C
# [6] = system: Trichophyton rubrum B68183; experiment: Antifungal activity in vitro (resazurin susceptibility screen), Inf. C; format: cell-based; details: Trichophyton rubrum B68183; 27 °C, 7 days, resa time 24 hours; read-out: Inf. C pIC50 (converted)
# Outline: (§6)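 First, serial dilutions of test compound are spotted onto plates, which may be stored dark at 4 °C for up to 2 weeks. Next, each well gets 10^3 cfu of fungus from cryopreserved stock diluted 1/1000 in medium. Untreated culture and RPMI-MOPS alone serve as plate controls.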
# [7] = system: Mucor circinelloides IHEM21105; experiment: Antifungal activity in vitro (resazurin susceptibility screen), Inf. L; format: cell-based; details: 27 °C, 48 hours, resa time 17 hours, read-out: Inf. L pIC50 (converted)
# Procedure: as §4
# [8] = system: Scedosporium apiospermum IHEM3817; experiment: Antifungal activity in vitro (resazurin susceptibility screen), Inf. H; format: cell-based; details: 37 °C, 48 hours, resa time 17 hours, read-out: Inf. H pIC50 (converted)
# Procedure: as §4
# [9] = system: Rhizomucor miehei IHEM13391; experiment: Antifungal activity in vitro (resazurin susceptibility screen), Inf. K; format: cell-based; details: 37 °C, 48 hours, resa time 17 hours, read-out: Inf. K pIC50 (converted)
# Procedure: as §4
# [10] = system: Sporothrix schenkii B62482; experiment: Antifungal activity in vitro (resazurin susceptibility screen), Inf. A; format: cell-based; details: Sporothrix, B62482, Sporothrix schenkii B62482; 27 °C, 4 days, resa time 24 hours; highest in-test concentration 64 μM; read-out: Inf. A pIC50 (converted)
# Outline: as §6
# [11] = system: Aspergillus fumigatus B42928; experiment: Antifungal activity in vitro (resazurin susceptibility screen), Inf. E; format: cell-based; details: Aspergillus fumigatus B42928; 27 °C, 48 hours, resa time 17 hours; read-out: Inf. E pIC50 (converted)
# Outline: as §6
# [12] = system: Cryptococcus neoformans B66663; experiment: Antifungal activity in vitro (resazurin susceptibility screen), Inf. F; format: cell-based; details: Cryptococcus neoformans, B66663, Cryptococcus neoformans B66663; 37 °C, 24 hours, resa time 4 hours; read-out: Inf. F pIC50 (converted)
# Outline: as §6
# Chain of Cytochrome P450 2C19 (P33261 whole entry): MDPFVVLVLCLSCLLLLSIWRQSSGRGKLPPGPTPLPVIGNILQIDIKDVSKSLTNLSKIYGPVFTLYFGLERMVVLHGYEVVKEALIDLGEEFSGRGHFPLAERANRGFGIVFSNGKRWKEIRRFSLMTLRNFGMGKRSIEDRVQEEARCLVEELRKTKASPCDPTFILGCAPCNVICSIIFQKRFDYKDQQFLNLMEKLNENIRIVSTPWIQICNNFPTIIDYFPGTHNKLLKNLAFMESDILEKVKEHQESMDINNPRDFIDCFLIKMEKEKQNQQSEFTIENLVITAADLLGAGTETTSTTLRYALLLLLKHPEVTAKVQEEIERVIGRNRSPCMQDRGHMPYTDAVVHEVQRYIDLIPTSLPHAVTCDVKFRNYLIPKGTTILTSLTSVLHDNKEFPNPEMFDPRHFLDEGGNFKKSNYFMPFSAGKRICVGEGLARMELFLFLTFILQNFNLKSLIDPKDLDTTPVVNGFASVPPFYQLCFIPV
# Chain of Cytochrome P450 2D6 (P10635 whole entry): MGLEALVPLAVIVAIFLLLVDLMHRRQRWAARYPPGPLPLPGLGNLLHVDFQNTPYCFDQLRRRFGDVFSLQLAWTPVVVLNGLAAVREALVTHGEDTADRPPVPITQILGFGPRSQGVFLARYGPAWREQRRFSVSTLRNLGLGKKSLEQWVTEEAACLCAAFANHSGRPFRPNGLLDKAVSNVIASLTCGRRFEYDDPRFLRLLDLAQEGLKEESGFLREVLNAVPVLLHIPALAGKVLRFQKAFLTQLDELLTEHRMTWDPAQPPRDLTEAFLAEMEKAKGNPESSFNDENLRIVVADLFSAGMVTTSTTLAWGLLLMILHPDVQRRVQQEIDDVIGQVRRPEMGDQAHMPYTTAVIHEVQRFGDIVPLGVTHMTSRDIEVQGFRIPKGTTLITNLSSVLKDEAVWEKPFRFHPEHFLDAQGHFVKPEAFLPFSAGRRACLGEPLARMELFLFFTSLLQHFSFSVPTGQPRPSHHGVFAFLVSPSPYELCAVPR
# Chain of CYP3A4/5 (P08684 2-503): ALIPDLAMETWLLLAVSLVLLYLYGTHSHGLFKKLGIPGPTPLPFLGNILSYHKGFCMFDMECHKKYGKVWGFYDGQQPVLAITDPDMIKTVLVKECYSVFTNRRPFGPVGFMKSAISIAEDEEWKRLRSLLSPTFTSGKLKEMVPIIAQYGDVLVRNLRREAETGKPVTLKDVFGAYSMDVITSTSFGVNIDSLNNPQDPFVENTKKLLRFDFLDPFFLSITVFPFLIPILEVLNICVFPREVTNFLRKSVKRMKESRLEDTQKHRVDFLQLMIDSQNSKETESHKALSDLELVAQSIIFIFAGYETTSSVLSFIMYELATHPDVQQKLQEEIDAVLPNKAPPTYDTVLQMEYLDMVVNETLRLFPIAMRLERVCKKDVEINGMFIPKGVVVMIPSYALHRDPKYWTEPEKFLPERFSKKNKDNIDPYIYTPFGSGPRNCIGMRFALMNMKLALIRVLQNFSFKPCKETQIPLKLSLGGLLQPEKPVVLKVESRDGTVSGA
# Chain of CYP2C9 (P11712 whole entry): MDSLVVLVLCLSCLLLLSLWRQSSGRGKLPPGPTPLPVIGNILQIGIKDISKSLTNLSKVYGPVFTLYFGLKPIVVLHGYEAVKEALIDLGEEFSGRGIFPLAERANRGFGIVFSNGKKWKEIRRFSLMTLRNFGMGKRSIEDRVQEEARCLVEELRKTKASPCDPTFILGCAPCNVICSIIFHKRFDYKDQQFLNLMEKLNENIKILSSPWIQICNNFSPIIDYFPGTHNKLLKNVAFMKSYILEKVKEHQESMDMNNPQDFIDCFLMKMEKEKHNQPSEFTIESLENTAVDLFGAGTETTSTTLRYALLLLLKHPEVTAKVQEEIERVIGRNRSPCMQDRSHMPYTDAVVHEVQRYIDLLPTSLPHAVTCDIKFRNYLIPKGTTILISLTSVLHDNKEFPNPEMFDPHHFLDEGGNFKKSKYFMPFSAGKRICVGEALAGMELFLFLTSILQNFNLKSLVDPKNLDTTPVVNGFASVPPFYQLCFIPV
# Chain of Cytochrome P450 2C9 (P11712 whole entry): as above
# Chain of CYP2D6 (P10635 whole entry): as the sequence (P10635 whole entry) above
smiles,measurement,setting,value
CCc1ccc(C2NCc3c(Cl)cccc3-n3cccc32)cc1 (centres unmarked),IC50,Cytochrome P450 2C19,1 µM
same,IC50 at 10 min,CYP2C9,10 µM
same,IC50,Cytochrome P450 2D6,3.16 µM
same,IC50,Cytochrome P450 1A2,> 10 µM
same,IC50,Cytochrome P450 2C8,> 10 µM
Br.CCc1ccc(C2NCc3c(Cl)cccc3-n3cccc32)cc1 (centres unmarked),IC50 at 10 min,CYP3A4/5,> 10 µM
same,IC50,Cytochrome P450 2C19,0.794 µM
same,IC50,Cytochrome P450 2C9,7.94 µM
same,IC50,Cytochrome P450 2D6,2 µM
same,1A2_Phen pIC50,"Cytochrome P450 1A2; human liver microsomes 0.2 mg/ml, probe phenacetin 80 microM",<5.0
same,2C8_Amod pIC50,Cytochrome P450 2C8,<5.0
CCc1ccc(C2NCc3ccc(Cl)cc3-n3cccc32)cc1 (centres unmarked),IC50 at 10 min,CYP3A4/5,6.31 µM
same,IC50,Cytochrome P450 2C19,0.316 µM
same,IC50 at 10 min,CYP2C9,10 µM
same,IC50,Cytochrome P450 2D6,3.98 µM
same,IC50,Cytochrome P450 1A2,> 10 µM
same,IC50,Cytochrome P450 2C8,> 10 µM
"CC(=O)c1ccc(C2=NCc3ccc(Cl)cc3-n3cccc32)cc1 [Compound 18, 1-[4-(9-chloro-6H-pyrrolo[1,2-a][1,4]benzodiazepin-4-yl)phenyl]-ethanone]",IC50,Microsporum canis B68128,2 µM
same,melting point,,114.4 to 115.7 °C
same,IC50,[1],1 µM
same,IC50,[2],12.6 µM
same,IC50,Rhizopus oryzae IHEM5223,> 63.1 µM
same,IC50,[3],63.1 µM
same,%-compound metabolised Met_gpLM,[4],36%
same,"inhibition at 10 min, 30 µM",CYP1A2; solvent condition A (0.15% DMSO+[…] acetonitrile),20 to 25%
same,"inhibition at 10 min, 30 µM",CYP1A2; solvent condition B (0.30% DMSO+0.68% acetonitrile),25 to 35%
same,"inhibition at 10 min, 30 µM",CYP2D6,40 to 45%
same,%-compound metabolised_Met_hLM,[5],17%
same,IC50,[6],0.316 µM
same,IC50,[7],> 63.1 µM
same,IC50,[8],39.8 µM
same,IC50,[9],> 63.1 µM
same,IC50,[10],7.94 µM
same,IC50,[11],0.501 µM
same,IC50,[12],1.58 µM
